The source of these data is US11207386B2, “Methods for inhibiting tumor growth” (priority 2015, dated 2021).

This assay deals with MCF-7 human breast cancer cells. The assay can be described thus: CellTiter Glo assay. To be noted: six wells and Average.

Several values for one entry are separate records, joined by “and”; a condition that tells them apart may be missing. Equal values may be shown once.

Experimental: MCF-7 human breast cancer cells were obtained and cultured for 3 passages in recommended media (DMEM medium, F12-K medium, McCoys 5a medium) and 10% fetal bovine serum (FBS). Cells were harvested by trypsinization, counted on ViCell, then plated at a density of 20,000 cells per well in ten clear bottom Perkin Elmer 96 well view plates and ten clear Costar 96 well plates. Oxyrase® and substrate were added to wells in quadruplicate: a first column of 4 wells had cells alone in each well; a second column of 4 wells contained Oxyrase® (20 units/mL) and cells; a third column of 4 wells contained L-Lactate at 40 mM and cells; and a fourth column of 4 wells contained cells and buffer, the latter added at equal volume to Oxyrase®. Five Perkin Elmer 96 well view plates and five clear Costar 96 well plates were placed in an incubator at 37 degrees Celsius and supplied with 5% carbon dioxide and 10% humidity. The remaining plates were placed in an incubator in anaerobic boxes containing oxygen depleting packets.
On days 0, 1, 3, 5, and 7, one Perkin Elmer 96 well view plate each from aerobic and anaerobic incubators were removed and a CellTiter Glo® assay was performed. CellTiter Glo® reagents were thawed at room temperature and mixed just before being added to each plate. Equal volume (maximum 125 μL) of CellTiter Glo® reagent was added to the plate and the plate incubated in the dark for 15 minutes. Plates were read using a Wallac Victor2 plate reader using the luminescence range

Regarding L-Lactate [Substrate + Buffer], the “CellTiter Glo luminescence (number of cells)” value (from here on “CellTiter Glo luminescence”) (MCF-7, Day 0, Substrate + Buffer) is 376738 RLU and 379461 RLU and 340018 RLU and 370831 RLU and 395464 RLU and 380015 RLU; the “CellTiter Glo luminescence” value (MCF-7, Day 1, Substrate + Buffer) is 136132 RLU and 135475 RLU and 224766 RLU and 187489 RLU and 171303 RLU and 142850 RLU; the “CellTiter Glo luminescence” value (MCF-7, Day 5, Substrate + Buffer) is 180844 RLU and 214489 RLU and 155311 RLU and 175921 RLU and 183640 RLU and 185254 RLU; the “CellTiter Glo luminescence” value (MCF-7, Day 7, Substrate + Buffer) was 147731 RLU and 163281 RLU and 149128 RLU and 150112 RLU and 139841 RLU and 176875 RLU.
